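All cell lines were grown in 96-well plates and treated with compound for 48 hours. TGI: concentration producing complete growth inhibition.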
What was measured:
Test in all cases: NCI-60 cell line screen, 48 h
786-0 renal = tested on: 786-0 renal
A498 renal = tested on: A498 renal
A549 NSCLC = tested on: A549 NSCLC
ACHN renal = tested on: ACHN renal
BT-549 breast = tested on: BT-549 breast
CAKI-1 renal = tested on: CAKI-1 renal
CCRF-CEM leukemia = tested on: CCRF-CEM leukemia
COLO 205 colon = tested on: COLO 205 colon
DU-145 prostate = tested on: DU-145 prostate
EKVX NSCLC = tested on: EKVX NSCLC
HCT-116 colon = tested on: HCT-116 colon
HCT-15 colon = tested on: HCT-15 colon
HL-60(TB) leukemia = tested on: HL-60(TB) leukemia
HOP-62 NSCLC = tested on: HOP-62 NSCLC
HOP-92 NSCLC = tested on: HOP-92 NSCLC
HS 578T breast = tested on: HS 578T breast
HT29 colon = tested on: HT29 colon
IGROV1 ovarian = tested on: IGROV1 ovarian
K-562 leukemia = tested on: K-562 leukemia
KM12 colon = tested on: KM12 colon
LOX IMVI melanoma = tested on: LOX IMVI melanoma
M14 melanoma = tested on: M14 melanoma
MALME-3M melanoma = tested on: MALME-3M melanoma
MCF7 breast = tested on: MCF7 breast
MDA-MB-231 breast = tested on: MDA-MB-231 breast
MDA-MB-435 = tested on: MDA-MB-435
MDA-N = tested on: MDA-N
MOLT-4 leukemia = tested on: MOLT-4 leukemia
NCI-H226 lung = tested on: NCI-H226 lung
NCI-H23 lung = tested on: NCI-H23 lung
NCI-H460 lung = tested on: NCI-H460 lung
NCI-H522 lung = tested on: NCI-H522 lung
NCI/ADR-RES ovarian = tested on: NCI/ADR-RES ovarian
OVCAR-3 ovarian = tested on: OVCAR-3 ovarian
OVCAR-4 ovarian = tested on: OVCAR-4 ovarian
OVCAR-5 ovarian = tested on: OVCAR-5 ovarian
OVCAR-8 ovarian = tested on: OVCAR-8 ovarian
PC-3 prostate = tested on: PC-3 prostate
RPMI-8226 leukemia = tested on: RPMI-8226 leukemia
RXF 393 renal = tested on: RXF 393 renal
SF-268 CNS = tested on: SF-268 CNS
SF-295 CNS = tested on: SF-295 CNS
SF-539 CNS = tested on: SF-539 CNS
SK-MEL-2 melanoma = tested on: SK-MEL-2 melanoma
SK-MEL-28 melanoma = tested on: SK-MEL-28 melanoma
SK-MEL-5 melanoma = tested on: SK-MEL-5 melanoma
SK-OV-3 ovarian = tested on: SK-OV-3 ovarian
SN12C renal = tested on: SN12C renal
SNB-19 CNS = tested on: SNB-19 CNS
SNB-75 CNS = tested on: SNB-75 CNS
SW-620 colon = tested on: SW-620 colon
T-47D breast = tested on: T-47D breast
TK-10 renal = tested on: TK-10 renal
U251 CNS = tested on: U251 CNS
UACC-257 melanoma = tested on: UACC-257 melanoma
UACC-62 melanoma = tested on: UACC-62 melanoma
UO-31 renal = tested on: UO-31 renal
HCC-2998 colon = tested on: HCC-2998 colon

Q: Which TGI (786-0 renal) does the source give for `O=C1NC(N/N=C/c2cccs2)=N/C1=C\c1ccco1` here?
A: > 100 µM

Q: What about the TGI (A498 renal) of the same compound?
A: 82.5 µM

Q: And the TGI (A549 NSCLC)?
A: > 100 µM

Q: And the TGI (ACHN renal)?
A: > 100 µM

Q: What about the TGI (BT-549 breast) of the same compound?
A: > 100 µM

Q: What about the TGI (CAKI-1 renal) of the same compound?
A: > 100 µM

Q: What about the TGI (CCRF-CEM leukemia) of the same compound?
A: > 100 µM

Q: What about the TGI (COLO 205 colon) of the same compound?
A: > 100 µM

Q: What about the TGI (DU-145 prostate) of the same compound?
A: > 100 µM

Q: What about the TGI (EKVX NSCLC) of the same compound?
A: > 100 µM

Q: What about the TGI (HCT-116 colon) of the same compound?
A: > 100 µM

Q: What about the TGI (HCT-15 colon) of the same compound?
A: > 100 µM

Q: And the TGI (HL-60(TB) leukemia)?
A: > 100 µM

Q: And the TGI (HOP-62 NSCLC)?
A: > 100 µM

Q: What about the TGI (HOP-92 NSCLC) of the same compound?
A: > 100 µM

Q: What about the TGI (HS 578T breast) of the same compound?
A: 76.7 µM

Q: What about the TGI (HT29 colon) of the same compound?
A: > 100 µM

Q: And the TGI (IGROV1 ovarian)?
A: > 100 µM

Q: What about the TGI (K-562 leukemia) of the same compound?
A: > 100 µM

Q: What about the TGI (KM12 colon) of the same compound?
A: > 100 µM

Q: What about the TGI (LOX IMVI melanoma) of the same compound?
A: > 100 µM

Q: What about the TGI (M14 melanoma) of the same compound?
A: > 100 µM

Q: What about the TGI (MALME-3M melanoma) of the same compound?
A: > 100 µM

Q: And the TGI (MCF7 breast)?
A: > 100 µM

Q: And the TGI (MDA-MB-231 breast)?
A: > 100 µM

Q: And the TGI (MDA-MB-435)?
A: 90.4 µM

Q: And the TGI (MDA-N)?
A: 13.6 µM

Q: And the TGI (MOLT-4 leukemia)?
A: > 100 µM

Q: What about the TGI (NCI-H226 lung) of the same compound?
A: > 100 µM

Q: What about the TGI (NCI-H23 lung) of the same compound?
A: > 100 µM

Q: What about the TGI (NCI-H460 lung) of the same compound?
A: > 100 µM

Q: And the TGI (NCI-H522 lung)?
A: 39.9 µM

Q: And the TGI (NCI/ADR-RES ovarian)?
A: > 100 µM

Q: And the TGI (OVCAR-3 ovarian)?
A: 74.4 µM

Q: And the TGI (OVCAR-4 ovarian)?
A: > 100 µM

Q: And the TGI (OVCAR-5 ovarian)?
A: > 100 µM

Q: What about the TGI (OVCAR-8 ovarian) of the same compound?
A: > 100 µM

Q: What about the TGI (PC-3 prostate) of the same compound?
A: > 100 µM

Q: And the TGI (RPMI-8226 leukemia)?
A: 94.8 µM

Q: What about the TGI (RXF 393 renal) of the same compound?
A: > 100 µM

Q: What about the TGI (SF-268 CNS) of the same compound?
A: > 100 µM

Q: And the TGI (SF-295 CNS)?
A: > 100 µM

Q: And the TGI (SF-539 CNS)?
A: > 100 µM

Q: And the TGI (SK-MEL-2 melanoma)?
A: 62.4 µM

Q: And the TGI (SK-MEL-28 melanoma)?
A: > 100 µM

Q: And the TGI (SK-MEL-5 melanoma)?
A: > 100 µM

Q: And the TGI (SK-OV-3 ovarian)?
A: 70.6 µM

Q: And the TGI (SN12C renal)?
A: > 100 µM

Q: What about the TGI (SNB-19 CNS) of the same compound?
A: > 100 µM

Q: What about the TGI (SNB-75 CNS) of the same compound?
A: > 100 µM

Q: And the TGI (SW-620 colon)?
A: > 100 µM

Q: What about the TGI (T-47D breast) of the same compound?
A: > 100 µM

Q: And the TGI (TK-10 renal)?
A: > 100 µM

Q: What about the TGI (U251 CNS) of the same compound?
A: > 100 µM

Q: And the TGI (UACC-257 melanoma)?
A: > 100 µM

Q: What about the TGI (UACC-62 melanoma) of the same compound?
A: > 100 µM

Q: What about the TGI (UO-31 renal) of the same compound?
A: > 100 µM

Q: Which TGI (786-0 renal) does the source give for `O=C(CCN1CCOCC1)c1ccc(Oc2ccc(F)cc2)cc1` here?
A: 30.8 µM

Q: What about the TGI (A498 renal) of the same compound?
A: > 100 µM

Q: What about the TGI (A549 NSCLC) of the same compound?
A: > 100 µM

Q: And the TGI (ACHN renal)?
A: 32.1 µM

Q: What about the TGI (BT-549 breast) of the same compound?
A: 35.9 µM

Q: What about the TGI (CAKI-1 renal) of the same compound?
A: 33 µM

Q: What about the TGI (CCRF-CEM leukemia) of the same compound?
A: 57.1 µM

Q: What about the TGI (COLO 205 colon) of the same compound?
A: 47 µM

Q: And the TGI (DU-145 prostate)?
A: > 100 µM

Q: And the TGI (EKVX NSCLC)?
A: 36.9 µM

Q: And the TGI (HCC-2998 colon)?
A: > 100 µM

Q: What about the TGI (HCT-116 colon) of the same compound?
A: 44.2 µM

Q: And the TGI (HCT-15 colon)?
A: 36.5 µM

Q: And the TGI (HL-60(TB) leukemia)?
A: 78.7 µM

Q: What about the TGI (HOP-62 NSCLC) of the same compound?
A: > 100 µM

Q: And the TGI (HOP-92 NSCLC)?
A: 49.5 µM

Q: And the TGI (HS 578T breast)?
A: 40.8 µM

Q: And the TGI (HT29 colon)?
A: 34.2 µM

Q: And the TGI (IGROV1 ovarian)?
A: 39.4 µM

Q: And the TGI (K-562 leukemia)?
A: 51.4 µM

Q: And the TGI (KM12 colon)?
A: 32.6 µM

Q: What about the TGI (LOX IMVI melanoma) of the same compound?
A: 48.5 µM

Q: And the TGI (M14 melanoma)?
A: 38.3 µM

Q: What about the TGI (MALME-3M melanoma) of the same compound?
A: 40.9 µM

Q: What about the TGI (MCF7 breast) of the same compound?
A: 40.4 µM

Q: What about the TGI (MDA-MB-231 breast) of the same compound?
A: 39 µM

Q: And the TGI (MDA-MB-435)?
A: > 100 µM

Q: What about the TGI (MDA-N) of the same compound?
A: 52.3 µM

Q: What about the TGI (MOLT-4 leukemia) of the same compound?
A: 55.2 µM

Q: And the TGI (NCI-H226 lung)?
A: 78 µM

Q: What about the TGI (NCI-H23 lung) of the same compound?
A: 70.4 µM

Q: And the TGI (NCI-H460 lung)?
A: > 100 µM

Q: And the TGI (NCI/ADR-RES ovarian)?
A: 69 µM

Q: What about the TGI (OVCAR-3 ovarian) of the same compound?
A: 50.7 µM

Q: What about the TGI (OVCAR-4 ovarian) of the same compound?
A: > 100 µM

Q: What about the TGI (OVCAR-5 ovarian) of the same compound?
A: 54.2 µM

Q: And the TGI (OVCAR-8 ovarian)?
A: 41.7 µM

Q: What about the TGI (PC-3 prostate) of the same compound?
A: 34.2 µM

Q: And the TGI (SF-295 CNS)?
A: > 100 µM

Q: What about the TGI (SF-539 CNS) of the same compound?
A: 38.7 µM

Q: What about the TGI (SK-MEL-2 melanoma) of the same compound?
A: 57.1 µM

Q: What about the TGI (SK-MEL-28 melanoma) of the same compound?
A: 52.2 µM

Q: What about the TGI (SK-MEL-5 melanoma) of the same compound?
A: > 100 µM

Q: What about the TGI (SK-OV-3 ovarian) of the same compound?
A: > 100 µM

Q: And the TGI (SN12C renal)?
A: > 100 µM

Q: What about the TGI (SNB-19 CNS) of the same compound?
A: > 100 µM

Q: And the TGI (SNB-75 CNS)?
A: 46.2 µM

Q: What about the TGI (SW-620 colon) of the same compound?
A: 62.6 µM

Q: What about the TGI (T-47D breast) of the same compound?
A: 42.6 µM

Q: And the TGI (TK-10 renal)?
A: 32.5 µM

Q: What about the TGI (U251 CNS) of the same compound?
A: > 100 µM

Q: What about the TGI (UACC-257 melanoma) of the same compound?
A: 32.9 µM

Q: What about the TGI (UACC-62 melanoma) of the same compound?
A: 37 µM

Q: And the TGI (UO-31 renal)?
A: 38.3 µM

Reference: PubChem BioAssay (NCI)
